Like-named read-outs stand apart in the source and are kept apart here.
Columns and labels:
BACE1 = BACE1 (Homo sapiens, UniProt P56817); experiment: In vitro enzymatic BACE FRET assay; format: biochemical
Procedure: In Vitro Enzymatic BACE FRET (Fluorescence Resonance Energy Transfer) Assay
Enzyme Assay Data in the Example Table I
The assay buffer used in this screen is 0.05 M acetate, pH 4.2, 10% DMSO final, 100 uM genapol (which is a nonionic detergent, below its Critical Micelle Concentration). The Beta Secretase enzyme (0.2 nM) is pre-incubated for one hour with inhibitors, typically in about 1 uL of DMSO according to a serial dilution, are added thereto. This assay is effectively started by the addition of FRET substrate (50 nM) and the combination is incubated for one hour. The FRET assay is terminated with by addition of Tris buffer, which raises the pH to neutrality, and the fluorescence is determined. The FRET substrate is a peptide with commercially available fluorophore and quencher, on opposite sides of the BACE cleavage site. Proteolytic cleavage of the FRET substrate releases quenching of fluorescence (excitation 488 nm and […]).

[1] = system: Aβ40 in conditioned medium of cells stably expressing Amyloid Precursor Protein (APP); experiment: In vitro BACE cell-based assay (HEK cell assay, Aβ40 sandwich ELISA); conditions: Homo sapiens, HEK293
Procedure: In Vitro BACE Cell-Based Assay
The cell-based assay measures inhibition or reduction of Aβ40 in conditioned medium of test compound treated cells expressing amyloid precursor protein.
Cells stably expressing Amyloid Precursor Protein (APP) were plated at a density of 40K cells/well in 96 well plates (Costar). The cells were cultivated for 24 hours at 37° C. and 5% CO2 in DMEM supplemented with 10% FBS. The test compounds were then added to cells in 10-point dose response concentrations with the starting concentration being either 100 μM or 10 μM. The compounds were diluted from stock solutions in DMSO and the final DMSO concentration of the test compounds on cells was 0.1%. After 24 h of incubation with the test compounds the supernatant conditioned media was collected and the Aβ 40 levels were determined using a sandwich ELISA. The IC50 of the compound was calculated from the percent of control or percent inhibition of Aβ 40 as a function of the concentration of the test compound.
The sandwich ELISA to detect Aβ 40 was performed in 96 well microtiter plates, which were pre-treated with goat anti-rabbit IgG (Pierce). The capture and detecting antibody pair that were used to detect Aβ 40 from cell supernatants were affinity purified pAb40 (Biosource) and biotinylated 6E10 (Signet Labs Inc.), respectively. The optimal concentration for the pAb40 antibody was 3 μg/ml in Superblock/TBS (Pierce) that was supplemented with 0.05% Tween 20 (Sigma). Optimal concentration for the detection antibody 6E10-biotinylated was 0.5 μg/ml in Superblock/TBS (Pierce) that had been supplemented with 2% normal goat serum and 2% normal mouse serum.
Cellular supernatants were incubated with the capture antibody for 3 h at 4° C., followed by 3 wash steps in TBS-tween (0.05%). The detecting antibody incubation was for 2 h at 4° C., again followed by the wash steps as described previously. The final readout of the ELISA is Time-Resolved Fluorescence (counts per minute) using Delfia reagents Streptavidin-Europium and Enhancement solutions (Perkin Elmer) and the Victor 2 multilabel counter (Perkin Elmer).

Cathepsin D (Cat D) = target: T1, Cathepsin D (Cat D) (Homo sapiens, UniProt P07339); experiment: In vitro enzymatic Cathepsin D (Cat D) FRET assay; format: biochemical; conditions: read-out: CatD IC50
T1 construct: made in house; host or cells: CHO cells
Procedure: In Vitro Enzymatic Cathepsin D (Cat D) FRET (Fluorescence Resonance Energy Transfer) Assay
Recombinant Cat D was expressed in CHO cells. The assay buffer for CathepsinD is 0.05 M citrate pH 3.5, 10% DMSO final, 5 mM CHAPS. The Cat D enzyme (9 nM) is pre-incubated for one hour with inhibitors, typically in about 1 uL of DMSO according to a serial dilution, is added thereto. The assays are effectively started by the addition of different FRET substrates (20 nM for Cat D) and the combination is incubated for one hour. The FRET assay is terminated with by addition of Tris buffer, which raises the pH to neutrality, and the fluorescence is determined. The FRET substrate is a peptide with commercially available fluorophore and quencher, on opposite sides of the BACE cleavage site. The Cat D substrate peptide sequence is based on sequence #1 of Table 1 from Gulnik et al. FEBS Letters v413 p 379-384 1997. Proteolytic cleavage of the FRET substrate releases quenching of fluorescence (Cat D excitation 500 nm and emission 580 nm). […]
Where available, the in-vitro Cat D FRET assay data for each of the Examples, conducted by the first procedure, is provided in Tables 1 and 3. For example, the compound of example 28 has a Cat D IC50 value of >400 uM.

[2] = read-out: BACE1 FRET assay IC50
[3] = Aβ40, 24 h incubation, read-out: HEK cell assay IC50
[4] = average IC50, read-out: BACE1 Enzyme assay IC50
[5] = average IC50, read-out: BACE1 cell assay IC50

T1 sequence (P07339 65-412, species assumed): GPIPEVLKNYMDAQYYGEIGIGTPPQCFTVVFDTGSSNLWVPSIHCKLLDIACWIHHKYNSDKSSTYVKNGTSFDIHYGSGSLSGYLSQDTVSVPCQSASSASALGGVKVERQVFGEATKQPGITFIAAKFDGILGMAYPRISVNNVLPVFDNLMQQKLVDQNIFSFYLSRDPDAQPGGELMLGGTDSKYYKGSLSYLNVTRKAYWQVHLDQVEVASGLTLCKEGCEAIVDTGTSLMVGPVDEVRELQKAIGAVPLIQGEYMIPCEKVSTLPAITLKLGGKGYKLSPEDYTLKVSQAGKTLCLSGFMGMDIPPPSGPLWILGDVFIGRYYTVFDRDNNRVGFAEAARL
Chain of BACE1 (P56817 46-501, species assumed): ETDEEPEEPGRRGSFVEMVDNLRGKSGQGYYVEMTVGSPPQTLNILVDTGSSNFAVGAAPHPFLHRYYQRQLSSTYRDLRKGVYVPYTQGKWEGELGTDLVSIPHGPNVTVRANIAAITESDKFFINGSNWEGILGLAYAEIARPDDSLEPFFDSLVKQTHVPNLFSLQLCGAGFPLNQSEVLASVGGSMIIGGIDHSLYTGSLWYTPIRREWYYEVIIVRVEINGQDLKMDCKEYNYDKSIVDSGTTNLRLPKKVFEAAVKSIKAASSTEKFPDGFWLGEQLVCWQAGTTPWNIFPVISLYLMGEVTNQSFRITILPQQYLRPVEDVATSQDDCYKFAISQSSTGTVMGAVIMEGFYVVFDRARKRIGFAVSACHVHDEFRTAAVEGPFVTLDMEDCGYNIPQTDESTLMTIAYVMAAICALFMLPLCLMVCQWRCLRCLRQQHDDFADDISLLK

Row | SMILES | IC50 (BACE1; [2]) [µM] | IC50 [1, 3] [µM] | IC50 (Cathepsin D (Cat D)) [µM] | IC50 (BACE1; [4]) [µM] | IC50 [1, 5] [µM] | IC50 (Cathepsin D (Cat D); average IC50, first procedure) [µM]
1 | COc1cnc(C(=O)Nc2ccc(F)c([C@@]3(C)N=C(N)[C@@]4(C)CC[C@@H]3S4(=O)=O)c2)cn1 [Example 37, N-(3-((1S,2R,5R)-4-amino-2,5-dimethyl-8,8-dioxido-8-thia-3-azabicyclo[3.2.1]oct-3-en-2-yl)-4-fluorophenyl)-5-methoxy-2-pyrazinecarboxamide] | 0.004 | 0.001 | 1170 | – | – | –
2 | C[C@]1(c2cc(Nc3ncc(F)c4cc(O)cnc34)ccc2F)N=C(N)[C@@]2(C)CC[C@@H]1S2(=O)=O [Example 39, (1R,4R,5S)-2-amino-4-(2-fluoro-5-((5-fluoro-3-hydroxy-1,7-naphthyridin-8-yl)amino)phenyl)-1,4-dimethyl-8-thia-3-azabicyclo[3.2.1]oct-2-ene 8,8-dioxide] | – | – | – | 0.001 | 0.009 | 191
3 | Cc1cc(C(F)(F)F)cnc1C(=O)Nc1ccc(F)c([C@@]2(C)N=C(N)[C@]3(C)CC[C@@]2(C)S3(=O)=O)c1 [Example 49, N-(3-((1R,2R,5S)-4-amino-1,2,5-trimethyl-8,8-dioxido-8-thia-3-azabicyclo[3.2.1]oct-3-en-2-yl)-4-fluorophenyl)-3-methyl-5-(trifluoromethyl)-2-pyridinecarboxamide] | – | – | – | 0.011 | 0.004 | 66.6
4 | C[C@]12CC[C@](C)([C@@](C)(c3cc(Nc4ncc(F)c5cc(Cl)cnc45)ccc3F)N=C1N)S2(=O)=O [Example 51, N-(3-((1R,2R,5S)-4-amino-1,2,5-trimethyl-8,8-dioxido-8-thia-3-azabicyclo[3.2.1]oct-3-en-2-yl)-4-fluorophenyl)-3-chloro-5-fluoro-1,7-naphthyridin-8-amine] | – | – | – | 0.011 | 0.381 | 21.5
5 | C[C@]1(c2cc(NC(=O)c3ccc(C#CC4CC4)cn3)ccc2F)N=C(N)[C@@]2(C)CC[C@@H]1S2(=O)=O [Example 64, N-(3-((1S,2R,5R)-4-amino-2,5-dimethyl-8,8-dioxido-8-thia-3-azabicyclo[3.2.1]oct-3-en-2-yl)-4-fluorophenyl)-5-(cyclopropylethynyl)-2-pyridinecarboxamide] | – | – | – | 0.001 | 0.005 | 470
6 | COc1cnc(C(=O)Nc2ccc(F)c([C@@]3(C)N=C(N)[C@]4(C)CC[C@H]3S4(=O)=O)c2)cn1 [Example 66, N-(3-((1R,2R,5S)-4-amino-2,5-dimethyl-8,8-dioxido-8-thia-3-azabicyclo[3.2.1]oct-3-en-2-yl)-4-fluorophenyl)-5-methoxy-2-pyrazinecarboxamide] | – | – | – | 0.07 | 0.018 | > 400
7 | C[C@]1(c2cc(Nc3nccc4nc(OCC5CC5)cnc34)ccc2F)N=C(N)[C@@]2(C)CC[C@@H]1S2(=O)=O [Example 68, N-(3-((1S,2R,5R)-4-amino-2,5-dimethyl-8,8-dioxido-8-thia-3-azabicyclo[3.2.1]oct-3-en-2-yl)-4-fluorophenyl)-2-(cyclopropylmethoxy)pyrido[3,4-b]pyrazin-5-amine] | – | – | – | 0.005 | 0.033 | > 400
8 | COc1cnc(C(=O)Nc2ccc(F)c([C@@]3(CF)N=C(N)[C@]4(C)CC[C@H]3S4(=O)=O)c2)cn1 [Example 75, N-(3-((1R,2S,5S)-4-amino-2-(fluoromethyl)-5-methyl-8,8-dioxido-8-thia-3-azabicyclo[3.2.1]oct-3-en-2-yl)-4-fluorophenyl)-5-methoxy-2-pyrazinecarboxamide] | – | – | – | 0.097 | 0.095 | > 400

Second part, the compound after the results:

Row | IC50 (BACE1; [2]) [µM] | IC50 [1, 3] [µM] | IC50 (Cathepsin D (Cat D)) [µM] | IC50 (BACE1; [4]) [µM] | IC50 [1, 5] [µM] | IC50 (Cathepsin D (Cat D); average IC50, first procedure) [µM] | SMILES
9 | 8.46 | > 15.6 | 1540 | – | – | – | Cc1cc(Cl)cnc1C(=O)Nc1ccc(F)c([C@@]2(C)N=C(N)[C@H]3CC[C@@H]2S3(=O)=O)c1 [Example 33, N-(3-((1S,2R,5R)-4-amino-2-methyl-8,8-dioxido-8-thia-3-azabicyclo[3.2.1]oct-3-en-2-yl)-4-fluorophenyl)-5-chloro-3-methyl-2-pyridinecarboxamide]
10 | 4.54 | 2.03 | 4310 | – | – | – | Cc1cc(Cl)cnc1C(=O)Nc1ccc(F)c([C@]2(C)N=C(N)[C@]3(C)CC[C@H]2S3(=O)=O)c1 [Example 34, N-(3-((1R,2S,5S)-4-amino-2,5-dimethyl-8,8-dioxido-8-thia-3-azabicyclo[3.2.1]oct-3-en-2-yl)-4-fluorophenyl)-5-chloro-3-methyl-2-pyridinecarboxamide]
11 | 0.002 | 0.006 | 5490 | – | – | – | COc1cnc2c(Nc3ccc(F)c([C@@]4(C)N=C(N)[C@@]5(C)CC[C@@H]4S5(=O)=O)c3)ncc(F)c2c1 [Example 36, N-(3-((1S,2R,5R)-4-amino-2,5-dimethyl-8,8-dioxido-8-thia-3-azabicyclo[3.2.1]oct-3-en-2-yl)-4-fluorophenyl)-5-fluoro-3-methoxy-1,7-naphthyridin-8-amine]
12 | – | – | – | 0.011 | 0.004 | 54.1 | Cc1cc(C(F)(F)F)cnc1C(=O)Nc1ccc(F)c([C@@]2(C)N=C(N)[C@@]3(C)CC[C@]2(C)S3(=O)=O)c1 [Example 48, N-(3-((1S,2R,5R)-4-amino-1,2,5-trimethyl-8,8-dioxido-8-thia-3-azabicyclo[3.2.1]oct-3-en-2-yl)-4-fluorophenyl)-3-methyl-5-(trifluoromethyl)-2-pyridinecarboxamide]
13 | – | – | – | 0.004 | 0.28 | 12 | C[C@]12CC[C@](C)(C(N)=N[C@]1(C)c1cc(Nc3ncc(F)c4cc(Cl)cnc34)ccc1F)S2(=O)=O [Example 50, N-(3-((1S,2R,5R)-4-amino-1,2,5-trimethyl-8,8-dioxido-8-thia-3-azabicyclo[3.2.1]oct-3-en-2-yl)-4-fluorophenyl)-3-chloro-5-fluoro-1,7-naphthyridin-8-amine]
14 | – | – | – | 0.007 | 0.016 | > 400 | C[C@]12CC[C@H]([C@@](C)(c3cc(NC(=O)c4ccc(C#CC5CC5)cn4)ccc3F)N=C1N)S2(=O)=O [Example 65, N-(3-((1R,2R,5S)-4-amino-2,5-dimethyl-8,8-dioxido-8-thia-3-azabicyclo[3.2.1]oct-3-en-2-yl)-4-fluorophenyl)-5-(cyclopropylethynyl)-2-pyridinecarboxamide]
15 | – | – | – | 0.156 | 0.522 | 99.3 | C[C@]12CC[C@H]([C@@](C)(c3cc(Nc4nccc5nc(OCC6CC6)cnc45)ccc3F)N=C1N)S2(=O)=O [Example 67, N-(3-((1R,2R,5S)-4-amino-2,5-dimethyl-8,8-dioxido-8-thia-3-azabicyclo[3.2.1]oct-3-en-2-yl)-4-fluorophenyl)-2-(cyclopropylmethoxy)pyrido[3,4-b]pyrazin-5-amine]
16 | – | – | – | 0.024 | 0.111 | > 400 | Cc1cc(Cl)cnc1C(=O)Nc1ccc(F)c([C@@]2(CF)N=C(N)[C@]3(C)CC[C@H]2S3(=O)=O)c1 [Example 72, N-(3-((1R,2S,5S)-4-amino-2-(fluoromethyl)-5-methyl-8,8-dioxido-8-thia-3-azabicyclo[3.2.1]oct-3-en-2-yl)-4-fluorophenyl)-5-chloro-3-methyl-2-pyridinecarboxamide]

Source: patent publication US9096615B2, “Bridged bicyclic amino thiazine dioxide compounds as inhibitors of beta-secretase and methods of use thereof” (AMGEN INC., priority 2013, dated 2015)
